Tested on: splenocytes from the mice vaccinated with Top2αC RNA/DCs
Experiment: IFN-γ ELISA of splenocytes stimulated with Top2αC-derived peptides
Format: cell-based, mouse
Conditions: 1 μg/ml peptides, three days, compared to other peptides
Method: The 5 Top2αC-derived peptides binding to MHC class I molecules (H-2 Kb) with a high score were selected by BIMAS and […], and in order to determine T lymphocyte epitopes of Top2αC, splenocytes from the mice vaccinated with Top2αC RNA/DCs were stimulated with Top2αC-derived peptides, and then IFN-γ production was determined by ELISA.
Splenocytes (2×10^5 cells/200 μl) of a mouse vaccinated with Top2αC RNA/DCs were incubated with 1 μg/ml peptides in a round-bottomed 96-well plate. Three days later, the plate was centrifuged and 100 μl of the supernatant was removed from each well. The level of IFN-γ was determined by ELISA (eBioscience, San Diego, USA).

Question: Which IFN-γ production does the source give for “DSDEDFSGL [p1327, Top2αC-derived peptide, location 1327-1355 as printed]” here?
Answer: The IFN-γ production was “higher level”.

— patent US20110287442A1, “Tumor Antigen Protein, Gene, or Peptides from Topoisimerase 2 Alpha” (CATHOLIC UNIVERSITY INDUSTRY ACADEMIC COOPERATION FOUNDATION, priority 2010, published 2011)
